Here are results for 8 compounds from patent US6376670B1, “Quinoline-indole antimicrobial agents, uses and compositions related thereto” (Sepracor Inc., priority 1997, dated 2002).

Where only a bound is given, the exact number is not on record here.

The MIC is the lowest concentration that inhibits growth of the organism.

Holding throughout (assay type): cell-based
The subject of test [1] is vancomycin-resistant Enterococcus spp. (VRE). In words: Determination of MIC values (BHI broth, 96 well microtiter plate). Particulars: Enterococcus, VRE, VREF; BHI broth, overnight 37° C.; read-out: MIC VREF. Summed up:
(§1)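 Organisms are grown in BHI at 37° C (about 7% CO2) to a 0.5 McFarland standard, then inoculated at 10^5 to 10^6 cells/mL into BHI holding twofold compound dilutions (final 25 down to 0.39 µg/mL, DMSO-diluted). After overnight incubation, MIC is the lowest concentration lacking growth.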

Test [2] deals with ciprofloxacin-resistant Staphylococcus aureus (CRSA). Described as above. Conditions: MRSA, cells marked [CRSA], overnight 37° C., read-out: MIC [CRSA] (printed in MRSA column). The method, boiled down:
as §1

A further test relates to Streptococcus pneumoniae. Described as above. Conditions: Streptococcus pneumoniae; S. pneu; BHI broth, overnight 37° C.; read-out: MIC S. pneu. The method, boiled down: as §1
Test [3] has as its system S. aureus 8325-4. The test can be described thus: Lytic response (culture turbidity 600 nm) in MH broth. Particulars: added at 5×, 10×, and 20×MIC to early log phase cultures. The procedure: (§2) Activities of the quinoline-indoles and comparator agents were determined against MSSA (n=32), MRSA (n=31) and VISA (n=7). Susceptibility testing on MH agar was performed using an inoculum of 10^6 c.f.u. Bactericidal, lytic and PAEs were determined on S. aureus 8325-4 in MH broth. Samples were removed for viable numbers on MH agar (for bactericidal response) and culture turbidity (600 nm) (for lytic response). PAEs were determined by a broth dilution method following exposure of bacteria to drugs at 5×MIC for 60 min.
The effects of the quinoline-indoles, and ciprofloxacin and rifampin (controls) on the integrity of S. aureus 8325-4 were examined following addition at 5×, 10×, and 20×MIC to early log phase cultures.
The lysis experiments were performed using classical “time kill-curve” methodology. See V. Lorian, Antibiotics in Laboratory Medicine, 4th ed., Chapter 2; Williams & Wilkins, Baltimore, 1996 (ISBN 0-683-05169-5). Bacteria (e.g., S. aureus) are exposed in liquid culture (early log phase approx […]) to multiples (typically 2×, 5×, 10×, and 20×) of the single cell agar MIC. Drug-free controls are also included. […] The samples are diluted in fresh drug-free medium and aliquots from a range of dilutions spread onto drug-free agar plates and those giving 30-300 colony forming units/plate are counted for quantification of survivors versus time of drug exposure. […]

In test [4] the test system is S. aureus 8325-4. In words: Post-antibiotic effect (PAE), broth dilution method. Particulars: exposed to 5×MIC for 60 min before washout; PAE = T-C. The procedure:
as §2
The PAE, defined as the lag period before the target organism resumes a normal growth rate after exposure to an inhibitor, was determined for D, A, and rifampin (control) against S. aureus 8325-4. Organisms were exposed to 5×MIC for 60 min. before washout and PAE calculated as T-C, wherein T=time required for treated cells to increase 1 log CFU/mL; and C=time required for non-treated control to increase 1 log CFU/ml. after washout with fresh medium. PAEs for D and A were both 40 min and for the rifampin control PAE was 180 mins. The rifampin PAE is in agreement with literature values.
(In broth dilution the organism is exposed to a series of concentrations in liquid medium.)

As for `NCCNC(=O)c1cc(-c2c[nH]c3ccc(Br)cc23)nc2cc(I)ccc12` [Example 296], the MIC (in test [1]; in test [2]; with Streptococcus pneumoniae) was under 7 µg/mL in each case.
In the case of `NCCNC(=O)c1cc(-c2c[nH]c3ccc(Br)cc23)nc2c(I)cccc12` [Example 320], the MIC (in test [1]; in test [2]; with Streptococcus pneumoniae) was under 7 µg/mL in each case.
`CO[C@H]1/C=C/O[C@@]2(C)Oc3c(C)c(O)c4c(O)c(c(/C=N/N5CCN(C)CC5)c(O)c4c3C2=O)NC(=O)/C(C)=C\C=C\[C@H](C)[C@H](O)[C@@H](C)[C@@H](O)[C@@H](C)[C@H](OC(C)=O)[C@@H]1C` [rifampin]: in the test on S. aureus 8325-4 [3], the “bactericidal mechanism of action (lytic versus non-lytic)” value is listed as “non-lytic”. Moreover, in the test on S. aureus 8325-4 [4], the “post-antibiotic effect (PAE)” value was 180 min.
For the compound `Cn1cc(-c2cc(C(=O)NCCN)c3ccc(I)cc3n2)c2cc(Br)ccc21` [Example 329], the MIC (in test [1]; in test [2]; in the test with Streptococcus pneumoniae) was under 7 µg/mL each time.
Consider `Cn1cc(-c2cc(C(=O)NCc3ccc(CN)cc3)c3ccc(F)cc3n2)c2cc(Br)ccc21` [Example 323], for which the figures for the minimal inhibitory concentration (MIC) (in test [1]; in test [2]; in the test on Streptococcus pneumoniae) were under 25 µg/mL, under 7 µg/mL and under 7 µg/mL, respectively.
For the compound `CCOC(=O)n1cc(-c2cc(C(=O)NCc3cccc(CN)c3)c3cc(I)ccc3n2)c2cc(Br)ccc21` [Example 324], the MIC (in test [1]; in test [2]; with Streptococcus pneumoniae) was over 25 µg/mL each time.
As to `O=C(O)c1cn(C2CC2)c2cc(N3CCNCC3)c(F)cc2c1=O` [ciprofloxacin], the “bactericidal mechanism of action (lytic versus non-lytic)” value with S. aureus 8325-4 [3] is “non-lytic”.
Consider `NCCNC(=O)c1cc(-c2c[nH]c3ccc(Br)cc23)nc2ccc(Cl)cc12` [Example 286], for which the MIC (in test [1]; in test [2]; in the test on Streptococcus pneumoniae) was under 7 µg/mL throughout.
